Assay results as given in patent US20260083865A1, “PROSTATE SPECIFIC MEMBRANE ANTIGEN (PSMA) LIGANDS AND USE THEREOF” (priority 2022, published 2026).
Read-outs that look alike come from different tables or passages of the source. Numbered stars: 1 amine (or outer) side, 2 acyl side, 3 side chain; on linkers, the order of the positions; unused ones are H or OH. Bridge positions count the residues as written; N and C are the ends. Square brackets hold non-standard residues; d marks the D form. Side chains are listed from the residue outwards. Peptide text beside a SMILES is read from it. * marks the point of attachment. X2 = O=C(O)CN1CCN(CC(=O)O)CCN([C@H](CCC(=O)*)C(=O)O)CCN(CC(=O)O)CC1; DOTA = O=C(O)CN1CCN(CC(=O)O)CCN(CC(=O)*)CCN(CC(=O)O)CC1; Phe(3-Cl) = N[C@@H](Cc1cccc(Cl)c1)C(=O)O; Phe(4-Cl) = N[C@@H](Cc1ccc(Cl)cc1)C(=O)O; X1 = O=C(CC1CCN([*:1])CC1)[*:2]; Aad = N[C@@H](CCCC(=O)O)C(=O)O; Tle = CC(C)(C)[C@H](N)C(=O)O; Propanoyl(3-OH) = O=C(CCO)*; AEEA = NCCOCCOCC(=O)O; Aib = CC(C)(N)C(=O)O; CO = O=C([*:1])[*:2]; βAla = NCCC(=O)O; NHBu = CCCCN*

What was measured:
[1] = biological target: T1, PSMA-expressing C4-2 cells (Homo sapiens, UniProt Q04609); experiment: FACS binding assay (competition with 50 nM PSM-0183); conditions: read-out: pIC50 [C4-2] CAT (converted)
T1 construct: PSMA-expressing C4-2 cells (ATCC, Cat. No. CRL-3314) were cultured in RPMI-1640; host or cells: C4-2 cells
Procedure, shortened: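 C4-2 cells were incubated 1 h at 4 °C with 50 nM AF488-labelled peptide PSM-0183 plus increasing test compound concentrations, then washed twice in ice-cold buffer. Median fluorescence in the AF488 channel was read by flow cytometry. IC50/pIC50 was derived by 4PL fitting of MFI versus concentration.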

[2] = biological target: T2, Fc-fusion protein of human PSMA (hPSMA-Fc) (Homo sapiens, UniProt Q04609); experiment: Surface plasmon resonance assay (Biacore T200, single cycle kinetic); assay type: binding; conditions: hPSMA-Fc, 25° C., read-out: pKD CAT (converted)
T2 construct: purchased Acro Biosystems PSA-H5264
Procedure, shortened: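 hPSMA-Fc was captured (~1000 RU) on an Fc-binding-peptide CM5 chip, and compounds were run in single cycle kinetic mode at 25° C in HBST with 0.1% DMSO. Double-blank-corrected sensorgrams were fitted to a 1:1 Langmuir model to give KD, reported as pKD.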

PC3-PIP tumor model = system: PC3-PIP tumor model; design: species or system mice; conditions: mouse, in vivo
Text: Radioactively labeled compounds can be detected by imaging methods such as SPECT and PET. Furthermore, the data acquired by such techniques can be confirmed by direct measurement of radioactivity contained in the individual organs prepared from an animal injected with a radioactively labeled compound of the disclosure. Thus, the biodistribution (the measurement of radioactivity in individual organs) of a radioactively labeled compound can be determined and analyzed. […] All animal experiments were conducted in compliance with the German animal protection laws. Male swiss or NMRI nude mice (6-8 weeks old, Janvier Labs, France) were inoculated with 5×10^6 PC3-PIP cells in the right shoulder. For selected compounds an additional model was used, here male NMRI nude mice (6-8 weeks old, Janvier Labs, France) were inoculated with 5×10^6 or/1×10^7 C4-2 cells in the right shoulder. When tumors reached an appropriate size, the mice received ˜30 MBq ^111In-labeled compounds of the disclosure (diluted to 100 μL with PBS) administered intravenously via the tail vein. Images were obtained on a NanoSPECT/computed tomography system (Mediso Medical Imaging Systems, Budapest, Hungary) using exemplarily the following acquisition and reconstruction parameters (Table 10). [table] Imaging data were saved as DICOM files and analysed using VivoQuant™ software (Invicro, Boston, USA). In brief, regions of interest (ROIs) were drawn based on computed tomography images for the relevant organs and tissue regions such as heart (estimate of blood pool, bps), kidney, and tumor. The resulting numeric data expressed as a percentage of injected dose per gram of tissue (% ID/g) are presented in FIGS. 3(a)-3(ii) for the PC3-PIP model and FIGS. 4(a)-4(r) for the C4-2 model. Bars show mean % ID/g values of two to three animals per time point. Error bars indicate the value range (minimum and maximum values).

[3] = FACS binding, C4-2 cells, competition with 50 nM PSM-0183, category
[4] = SPR, single cycle kinetic, category
[5] = pIC50 category of FACS binding, C4-2 cells
[6] = pKD category for PSMA SPR activity assay

T2 sequence (Q04609 44-750 limits assumed): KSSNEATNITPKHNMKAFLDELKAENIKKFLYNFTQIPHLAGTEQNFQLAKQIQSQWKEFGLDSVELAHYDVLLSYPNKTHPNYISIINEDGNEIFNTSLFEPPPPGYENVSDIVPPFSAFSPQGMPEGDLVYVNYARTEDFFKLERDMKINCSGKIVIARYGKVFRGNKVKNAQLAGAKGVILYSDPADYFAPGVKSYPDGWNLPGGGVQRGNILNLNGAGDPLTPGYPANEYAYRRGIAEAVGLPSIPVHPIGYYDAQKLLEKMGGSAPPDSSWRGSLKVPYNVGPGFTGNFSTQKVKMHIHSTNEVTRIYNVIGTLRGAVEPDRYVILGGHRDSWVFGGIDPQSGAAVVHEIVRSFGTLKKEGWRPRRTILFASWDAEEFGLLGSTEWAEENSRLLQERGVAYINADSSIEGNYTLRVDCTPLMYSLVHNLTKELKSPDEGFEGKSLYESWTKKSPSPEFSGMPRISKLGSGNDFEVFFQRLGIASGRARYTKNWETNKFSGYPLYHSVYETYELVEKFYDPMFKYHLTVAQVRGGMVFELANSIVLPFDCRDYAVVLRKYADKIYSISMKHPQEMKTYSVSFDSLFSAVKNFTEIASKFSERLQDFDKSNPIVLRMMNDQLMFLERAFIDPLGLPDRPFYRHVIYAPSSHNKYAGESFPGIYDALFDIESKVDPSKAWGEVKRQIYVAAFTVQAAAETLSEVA
T1 sequence (Q04609 whole entry): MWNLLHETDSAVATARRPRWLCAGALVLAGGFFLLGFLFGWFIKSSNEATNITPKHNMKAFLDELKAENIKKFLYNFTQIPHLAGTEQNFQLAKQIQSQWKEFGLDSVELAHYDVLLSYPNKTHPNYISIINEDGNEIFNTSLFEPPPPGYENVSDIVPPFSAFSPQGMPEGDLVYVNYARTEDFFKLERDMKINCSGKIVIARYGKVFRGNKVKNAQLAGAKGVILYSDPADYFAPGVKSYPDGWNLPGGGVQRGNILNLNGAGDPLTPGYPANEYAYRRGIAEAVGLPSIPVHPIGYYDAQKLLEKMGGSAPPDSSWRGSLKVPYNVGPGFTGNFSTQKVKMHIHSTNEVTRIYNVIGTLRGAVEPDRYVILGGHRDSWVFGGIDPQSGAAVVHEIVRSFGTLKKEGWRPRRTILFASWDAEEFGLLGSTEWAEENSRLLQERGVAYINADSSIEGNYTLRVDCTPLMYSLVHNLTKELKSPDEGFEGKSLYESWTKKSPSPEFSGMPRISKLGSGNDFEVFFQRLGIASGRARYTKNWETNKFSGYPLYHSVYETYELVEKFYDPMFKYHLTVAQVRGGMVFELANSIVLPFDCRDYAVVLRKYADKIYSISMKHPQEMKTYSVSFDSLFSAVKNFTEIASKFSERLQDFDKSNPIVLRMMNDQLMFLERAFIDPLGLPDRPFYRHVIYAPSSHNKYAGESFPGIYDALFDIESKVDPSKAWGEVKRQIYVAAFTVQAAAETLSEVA

IC50 [1, 3] [nM]	Kd [2, 4] [nM]	AUC ratio [T/K] (PC3-PIP tumor model)	Tumor AUC (PC3-PIP tumor model) [% ID/g*h]	IC50 [1, 5] [nM]	Kd [2, 6] [nM]	IC50 ([1]; FACS binding, PSMA-expressing C4-2 cells, pIC50 category) [nM]	Kd ([2]; PSMA SPR assay, pKD category) [nM]	Structure (SMILES)
		1.7	270	< 200	< 12.6			C[C@@H](O)[C@H](NC(=O)CC1CCN(C(=O)CN2CCN(CC(=O)O)CCN(CC(=O)O)CCN(CC(=O)O)CC2)CC1)C(=O)NC(C)(C)C(=O)N[C@@H](Cc1ccc(Cl)cc1)C(=O)N[C@H]1CSSC[C@@H](C(=O)N[C@H](C(N)=O)C(C)(C)C)NC(=O)[C@H](CC(N)=O)NC(=O)C(C)(C)NC(=O)[C@H](CCCNC(=N)N)NC(=O)[C@H](CCCCN)NC1=O [PSM-0433, DOTA-Cmp-Thr-Aib-Pcf-[Cys-Lys-Arg-Aib-Asn-Cys]-Tle-NH2] ({DOTA}-[X1]T[Aib][Phe(4-Cl)]CKR[Aib]NC[Tle]-NH2; disulfide 5-10)
		1.1	220	< 200	< 12.6			C[C@@H](O)[C@H](NC(=O)CN1CCN(CC(=O)O)CCN(CC(=O)O)CCN(CC(=O)O)CC1)C(=O)NC(C)(C)C(=O)N[C@@H](Cc1ccc(Cl)cc1)C(=O)N[C@H]1CSSC[C@@H](C(=O)N[C@H](C(N)=O)C(C)(C)C)NC(=O)[C@H](CC(N)=O)NC(=O)C(C)(C)NC(=O)[C@H](CCCNC(=N)N)NC(=O)[C@H](CCCCN)NC1=O [PSM-0534, DOTA-Thr-Aib-Pcf-[Cys-Lys-Arg-Aib-Asn-Cys]-Tle-NH2] ({DOTA}-T[Aib][Phe(4-Cl)]CKR[Aib]NC[Tle]-NH2; disulfide 4-9)
		1.3	280	< 200	< 12.6			C[C@@H](O)[C@H](NC(=O)CC1CCN(C(=O)CN2CCN(CC(=O)O)CCN(CC(=O)O)CCN(CC(=O)O)CC2)CC1)C(=O)NC(C)(C)C(=O)N[C@@H](Cc1ccc(Cl)cc1)C(=O)N[C@H]1CSSC[C@@H](C(=O)N[C@H](C(=O)NCCC(N)=O)C(C)(C)C)NC(=O)[C@H](CC(N)=O)NC(=O)C(C)(C)NC(=O)[C@H](CCCNC(=N)N)NC(=O)[C@H](CCCCN)NC1=O [PSM-0467, DOTA-Cmp-Thr-Aib-Pcf-[Cys-Lys-Arg-Aib-Asn-Cys]-Tle-Bal-NH2] ({DOTA}-[X1]T[Aib][Phe(4-Cl)]CKR[Aib]NC[Tle][βAla]-NH2; disulfide 5-10)

Further lines, the compound ahead of its results:

Structure (SMILES)	IC50 [1, 3] [nM]	Kd [2, 4] [nM]	AUC ratio [T/K] (PC3-PIP tumor model)	Tumor AUC (PC3-PIP tumor model) [% ID/g*h]	IC50 [1, 5] [nM]	Kd [2, 6] [nM]	IC50 ([1]; FACS binding, PSMA-expressing C4-2 cells, pIC50 category) [nM]	Kd ([2]; PSMA SPR assay, pKD category) [nM]
C[C@@H](O)[C@H](NC(=O)[C@@H](NC(=O)[C@@H]1CSSC[C@H](NC(=O)[C@H](Cc2ccccc2)NC(=O)C(C)(C)NC(=O)[C@@H](NC(=O)CC2CCN(C(=O)CC[C@H](C(=O)O)N3CCN(CC(=O)O)CCN(CC(=O)O)CCN(CC(=O)O)CC3)CC2)[C@@H](C)O)C(=O)N[C@@H](CCCCN)C(=O)N[C@@H](CCCNC(=N)N)C(=O)NC(C)(C)C(=O)N[C@@H](CC(N)=O)C(=O)N1)C(C)(C)C)C(N)=O [PSM-0218, DOTAGA-Cmp-Thr-Aib-Phe-[Cys-Lys-Arg-Aib-Asn-Cys]-Tle-Thr-NH2] (X2-[X1]T[Aib]FCKR[Aib]NC[Tle]T-NH2; disulfide 5-10)	< 200	< 12.6	1.2	150				
C[C@@H](O)[C@H](NC(=O)[C@@H](NC(=O)[C@@H]1CSSC[C@H](NC(=O)[C@H](Cc2ccc(Cl)cc2)NC(=O)C(C)(C)NC(=O)[C@@H](NC(=O)CC2CCN(C(=O)CN3CCN(CC(=O)O)CCN(CC(=O)O)CCN(CC(=O)O)CC3)CC2)[C@@H](C)O)C(=O)N[C@@H](CCCCN)C(=O)N[C@@H](CCCC(N)=O)C(=O)NC(C)(C)C(=O)N[C@@H](CC(N)=O)C(=O)N1)C(C)(C)C)C(N)=O [PSM-0531, DOTA-Cmp-Thr-Aib-Pcf-[Cys-Lys-Hgn-Aib-Asn-Cys]-Tle-Thr-NH2] ({DOTA}-[X1]T[Aib][Phe(4-Cl)]CK[Aad](NH2)[Aib]NC[Tle]T-NH2; disulfide 5-10)			1.6	120	< 200	< 12.6		
CCCCNC(=O)N[C@H](C(=O)NC(C)(C)C(=O)N[C@@H](Cc1ccc(Cl)cc1)C(=O)N[C@H]1CSSC[C@@H](C(=O)N[C@H](C(=O)N[C@H](C(=O)N2CCC(CC(=O)N[C@H](CCCCNC(=O)CN3CCN(CC(=O)O)CCN(CC(=O)O)CCN(CC(=O)O)CC3)C(N)=O)CC2)[C@@H](C)O)C(C)(C)C)NC(=O)[C@H](CC(N)=O)NC(=O)C(C)(C)NC(=O)[C@H](CCCNC(=N)N)NC(=O)[C@H](CCCCN)NC1=O)[C@@H](C)O [PSM-0371, nBuCAyl-Thr-Aib-Pcf-[Cys-Lys-Arg-Aib-Asn-Cys]-Tle-Thr-Cmp-lys(DOTA)-NH2] ({NHBu-CO}-T[Aib][Phe(4-Cl)]CKR[Aib]NC[Tle]T[X1][dK](DOTA)-NH2; disulfide 4-9)			0.62	120	< 200	< 12.6		
CC(=O)N[C@H](C(=O)NC(C)(C)C(=O)N[C@@H](Cc1cccc(Cl)c1)C(=O)N[C@H]1CSSC[C@@H](C(=O)N[C@H](C(=O)N[C@H](C(N)=O)[C@@H](C)O)C(C)(C)C)NC(=O)[C@H](CC(N)=O)NC(=O)[C@H](CCCCNC(=O)COCCOCCNC(=O)CN2CCN(CC(=O)O)CCN(CC(=O)O)CCN(CC(=O)O)CC2)NC(=O)[C@H](CCCNC(=N)N)NC(=O)[C@H](CCCCN)NC1=O)[C@@H](C)O [PSM-0243, Ac-Thr-Aib-Mcf-[Cys-Lys-Arg-Lys(DOTA-O2Oc)-Asn-Cys]-Tle-Thr-NH2] (Ac-T[Aib][Phe(3-Cl)]CKRK([AEEA-DOTA])NC[Tle]T-NH2; disulfide 4-9)	< 200	< 12.6	0.53	130				
CC(=O)N[C@H](C(=O)NC(C)(C)C(=O)N[C@@H](Cc1cccc(Cl)c1)C(=O)N[C@H]1CSSC[C@@H](C(=O)N[C@H](C(=O)N[C@H](C(N)=O)[C@@H](C)O)C(C)(C)C)NC(=O)[C@H](CC(N)=O)NC(=O)[C@H](CCCCNC(=O)COCCOCCNC(=O)CC[C@H](C(=O)O)N2CCN(CC(=O)O)CCN(CC(=O)O)CCN(CC(=O)O)CC2)NC(=O)[C@H](CCCNC(=N)N)NC(=O)[C@H](CCCCN)NC1=O)[C@@H](C)O [PSM-0301, Ac-Thr-Aib-Mcf-[Cys-Lys-Arg-Lys (DOTAGA-020c)-Asn-Cys]-Tle-Thr-NH2] (Ac-T[Aib][Phe(3-Cl)]CKRK([AEEA-X2])NC[Tle]T-NH2; disulfide 4-9)			0.45	83			< 200	< 12.6
C[C@@H](O)[C@H](NC(=O)[C@@H](NC(=O)[C@@H]1CSSC[C@H](NC(=O)[C@H](Cc2ccc(Cl)cc2)NC(=O)C(C)(C)NC(=O)CCO)C(=O)N[C@@H](CCCCN)C(=O)N[C@@H](CCCNC(=N)N)C(=O)NC(C)(C)C(=O)N[C@@H](CC(N)=O)C(=O)N1)C(C)(C)C)C(=O)N[C@H](CCCCNC(=O)CN1CCN(CC(=O)O)CCN(CC(=O)O)CCN(CC(=O)O)CC1)C(N)=O [PSM-0267, HPA-Aib-Pcf-[Cys-Lys-Arg-Aib-Asn-Cys]-Tle-Thr-lys(DOTA)-NH2] ({Propanoyl(3-OH)}-[Aib][Phe(4-Cl)]CKR[Aib]NC[Tle]T[dK](DOTA)-NH2; disulfide 3-8)	< 200	< 12.6	1.2	170				
C[C@@H](O)[C@H](NC(=O)CC1CCN(C(=O)CN2CCN(CC(=O)O)CCN(CC(=O)O)CCN(CC(=O)O)CC2)CC1)C(=O)NC(C)(C)C(=O)N[C@@H](Cc1ccccc1)C(=O)N[C@H]1CSSC[C@@H](C(=O)N[C@H](C(=O)NCCC(N)=O)C(C)(C)C)NC(=O)[C@H](CC(N)=O)NC(=O)C(C)(C)NC(=O)[C@H](CCCNC(=N)N)NC(=O)[C@H](CCCCN)NC1=O [PSM-0449, DOTA-Cmp-Thr-Aib-Pho-[Cys-Lys-Arg-Aib-Asn-Cys]-Tle-Bal-NH2] ({DOTA}-[X1]T[Aib]FCKR[Aib]NC[Tle][βAla]-NH2; disulfide 5-10)			1.4	220	< 200	< 12.6		
